Measurements from patent publication US12336981B2, “Compounds and compositions for the inhibition of NAMPT” (Valo Health, Inc., priority 2010, dated 2025).
Where two headings read alike, the source gives them in different places.

Experiments:
[1] = target: T1, NAMPT (Homo sapiens, UniProt P43490); experiment: Biochemical inhibition assay: NAMPT enzymatic reaction, NMN quantified by mass spectrometry; conditions: read-out: Biochem IC50
T1 construct: His tag; host or cells: E. coli
Method in brief: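 Inhibition of E. coli-expressed His-tagged human NAMPT, measured as NMN formation by mass spectrometry after a 30 min room-temperature reaction containing 1 μM NAM, 100 μM PRPP and 2.5 mM ATP.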

[2] = system: A2780 cells; experiment: In-vitro cell proliferation assay (SRB), A2780 cells; type: cell-based; conditions: Homo sapiens, A2780, 72 h, A2780 cells, 72 hours, read-out: A2780 IC50
Method in brief: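 Growth inhibition was derived from background-corrected SRB absorbance (570 nm), measured on cells fixed in 6% TCA after three days of compound treatment under 5% CO2 at 37° C.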

T1 sequence (P43490 whole entry): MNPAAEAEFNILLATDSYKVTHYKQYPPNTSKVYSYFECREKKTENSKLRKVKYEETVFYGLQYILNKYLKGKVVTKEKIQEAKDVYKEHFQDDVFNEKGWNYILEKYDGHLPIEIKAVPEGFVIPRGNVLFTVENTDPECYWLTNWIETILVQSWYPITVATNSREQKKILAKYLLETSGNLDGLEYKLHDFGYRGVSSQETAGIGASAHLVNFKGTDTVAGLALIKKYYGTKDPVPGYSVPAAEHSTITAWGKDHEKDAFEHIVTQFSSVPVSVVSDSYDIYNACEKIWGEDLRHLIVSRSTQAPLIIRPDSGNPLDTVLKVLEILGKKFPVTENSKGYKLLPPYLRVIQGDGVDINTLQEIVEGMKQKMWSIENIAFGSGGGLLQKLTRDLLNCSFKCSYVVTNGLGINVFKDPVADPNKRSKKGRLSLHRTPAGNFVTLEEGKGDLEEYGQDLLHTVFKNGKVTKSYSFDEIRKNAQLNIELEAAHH

SMILES	IC50 ([1]; NAMPT enzymatic assay) [nM]	IC50 ([2]; SRB) [nM]	IC50 ([1]; NAMPT enzymatic reaction) [nM]	IC50 ([2]; SRB assay) [nM]
Cc1cncc(S(=O)(=O)c2ccc(CNC(=O)c3cnc4nccn4c3)cc2)c1 [N-{[4-(5-methylpyridine-3-sulfonyl)phenyl]methyl}imidazo[1,2-a]pyrimidine-6-carboxamide]	2.2	12.4		
Cc1cccc(S(=O)(=O)c2ccc(CNC(=O)c3cc4cnccc4[nH]3)cc2)c1 [N-({4-[(3-methylbenzene)sulfonyl]phenyl}methyl)-1H-pyrrolo[3,2-c]pyridine-2-carboxamide]			9	4
O=C(NCc1ccc(S(=O)(=O)c2ccc3nc(C(F)(F)F)cn3c2)cc1)c1cnc2[nH]ncc2c1 [N-({4-[2-(trifluoromethyl)imidazo[1,2-a]pyridine-6-sulfonyl]phenyl}methyl)-1H-pyrazolo[3,4-b]pyridine-5-carboxamide]	49.7	33		
CCc1ccc(S(=O)(=O)c2ccc(CNC(=O)c3ccc4nccn4c3)cc2)cc1 [N-({4-[(4-ethylbenzene)sulfonyl]phenyl}methyl)imidazo[1,2-a]pyridine-6-carboxamide]		7.36	16.5	
O=C(NCc1ccc(S(=O)(=O)Nc2ccccc2N2CCOCC2)cc1)c1cc2cnccc2[nH]1 [N-[(4-{[2-(morpholin-4-yl)phenyl]sulfamoyl}phenyl)methyl]-1H-pyrrolo[3,2-c]pyridine-2-carboxamide]			19	17
Cc1cccc(S(=O)(=O)c2ccc(CNC(=O)c3cc4ccncc4s3)cc2)c1F		3.3	10.7	
O=C(NCc1ccc(S(=O)(=O)c2ccc(Cl)c(F)c2)cc1)c1ccc2nccn2c1 [N-({4-[(4-chloro-3-fluorobenzene)sulfonyl]phenyl}methyl)imidazo[1,2-a]pyridine-6-carboxamide]		7.24	7.22	
O=C(NCc1ccc(S(=O)(=O)c2ccc(N3CCOCC3)nc2)cc1)c1ccc2nccn2c1 [N-({4-[6-(morpholin-4-yl)pyridine-3-sulfonyl]phenyl}methyl)imidazo[1,2-a]pyridine-6-carboxamide]	9	1.5		
Cc1cc(Cl)cc(S(=O)(=O)c2ccc(CNC(=O)c3cc4ccncc4s3)cc2)c1 [N-({4-[(3-chloro-5-methylbenzene)sulfonyl]phenyl}methyl)thieno[2,3-c]pyridine-2-carboxamide]		1.6	4.5	
O=C(NCc1ccc(S(=O)(=O)c2cccc3c2OCC3)cc1)c1cc2cnccc2[nH]1 [N-{[4-(2,3-dihydro-1-benzofuran-7-sulfonyl)phenyl]methyl}-1H-pyrrolo[3,2-c]pyridine-2-carboxamide]	14	3.8		
O=C(NCc1ccc(S(=O)(=O)c2cnc3ccc(Cl)cn23)cc1)c1cc2ccncc2o1 [N-[(4-{6-chloroimidazo[1,2-a]pyridine-3-sulfonyl}phenyl)methyl]furo[2,3-c]pyridine-2-carboxamide]	1.2	0.4		
COc1cccc(S(=O)(=O)c2ccc(CNC(=O)c3cc4cnccc4[nH]3)cc2)c1F [N-({4-[(2-fluoro-3-methoxybenzene)sulfonyl]phenyl}methyl)-1H-pyrrolo[3,2-c]pyridine-2-carboxamide]			10	7
COc1cc(F)c(F)cc1S(=O)(=O)c1ccc(CNC(=O)c2ccc3nccn3c2)cc1 [N-({4-[(4,5-difluoro-2-methoxybenzene)sulfonyl]phenyl}methyl)imidazo[1,2-a]pyridine-6-carboxamide]		6.8	28.1	
CCCCOc1cccc(S(=O)(=O)c2ccc(CNC(=O)c3cc4cnccc4[nH]3)cc2)c1 [N-({4-[(3-butoxybenzene)sulfonyl]phenyl}methyl)-1H-pyrrolo[3,2-c]pyridine-2-carboxamide]		21.6	11.5	
COc1cc(Cl)ccc1S(=O)(=O)c1ccc(CNC(=O)c2cc3cnccc3[nH]2)cc1 [N-({4-[(4-chloro-2-methoxybenzene)sulfonyl]phenyl}methyl)-1H-pyrrolo[3,2-c]pyridine-2-carboxamide]			22	3
CCCCOc1cc(F)ccc1S(=O)(=O)c1ccc(CNC(=O)c2cnc3[nH]ncc3c2)cc1 [N-({4-[(2-butoxy-4-fluorobenzene)sulfonyl]phenyl}methyl)-1H-pyrazolo[3,4-b]pyridine-5-carboxamide]		100 to 1000	176	
CCCCOc1cccc(S(=O)(=O)c2ccc(CNC(=O)c3ccc4nccn4c3)cc2)c1		18	4.7	
O=C(NCc1ccc(S(=O)(=O)c2cc(F)cc(C(F)(F)F)c2)cc1)c1cc2cnccc2[nH]1	26.2	3.6		
CCCOc1ccc(S(=O)(=O)c2ccc(CNC(=O)c3cc4ccncc4s3)cc2)cc1Cl		17.4	15.1	
Cn1c(S(=O)(=O)c2ccc(CNC(=O)c3cnc4[nH]ncc4c3)cc2)cc2ccccc21 [N-{[4-(1-methyl-1H-indole-2-sulfonyl)phenyl]methyl}-1H-pyrazolo[3,4-b]pyridine-5-carboxamide]	14	13.2		
COc1cc(OC)cc(S(=O)(=O)c2ccc(CNC(=O)c3cc4ccncc4s3)cc2)c1		0.9	1.3	
Cc1cc(F)cc(S(=O)(=O)c2ccc(CNC(=O)c3cc4ccncc4s3)cc2)c1		0.6	1	

SMILES	IC50 ([1]; NAMPT enzymatic assay) [nM]	IC50 ([2]; SRB) [nM]	IC50 ([1]; NAMPT enzymatic reaction) [nM]	IC50 ([2]; SRB assay) [nM]
O=C(NCc1ccc(S(=O)(=O)c2cccc3c2Oc2ccccc2S3)cc1)c1cc2ccncc2s1 [N-{[4-(phenoxathiine-4-sulfonyl)phenyl]methyl}thieno[2,3-c]pyridine-2-carboxamide]			4	1.7
O=C(NCc1ccc(S(=O)(=O)c2ccc(OC(F)(F)F)cc2)cc1)c1cnc2nccn2c1	5	17.6		
O=C(NCc1ccc(S(=O)(=O)c2cccc(N3CCCCC3)c2)cc1)c1cc2cnccc2[nH]1	14.4	3.3		
O=C(NCc1ccc(S(=O)(=O)c2ccccc2Oc2ccccc2)cc1)c1cnc2[nH]ncc2c1 [N-({4-[(2-phenoxybenzene)sulfonyl]phenyl}methyl)-1H-pyrazolo[3,4-b]pyridine-5-carboxamide]		100 to 1000	100 to 1000	
O=C(NCc1ccc(S(=O)(=O)c2ccc(N3CCOCC3)nc2)cc1)c1cc2cnccc2[nH]1 [N-({4-[6-(morpholin-4-yl)pyridine-3-sulfonyl]phenyl}methyl)-1H-pyrrolo[3,2-c]pyridine-2-carboxamide]	9.6	1.5		
CCNC(=O)c1ccc(S(=O)(=O)c2ccc(CNC(=O)c3cc4ccncc4o3)cc2)cc1	4.5	6.7		
CCc1cccc(S(=O)(=O)c2ccc(CNC(=O)c3cc4ccncc4o3)cc2)c1 [N-({4-[(3-ethylbenzene)sulfonyl]phenyl}methyl)furo[2,3-c]pyridine-2-carboxamide]		6.5	8.7	
O=C(NCc1ccc(S(=O)(=O)c2ccc(C3CCCCC3)cc2)cc1)c1cc2ccncc2s1		12.9	3.4	
COc1ccc(C(C)=O)cc1S(=O)(=O)c1ccc(CNC(=O)c2cc3ccncc3o2)cc1		3.8	7.2	
O=C(NCc1ccc(S(=O)(=O)c2ccc(OCC(F)(F)F)c(F)c2)cc1)c1cc2ccncc2s1	4.6	23.5		
O=C(NCc1ccc(S(=O)(=O)c2cc(C(F)(F)F)ccn2)cc1)c1cc2ccncc2s1 [N-({4-[4-(trifluoromethyl)pyridine-2-sulfonyl]phenyl}methyl)thieno[2,3-c]pyridine-2-carboxamide]	3.6	3		
COc1cc(C)c(S(=O)(=O)c2ccc(CNC(=O)c3ccc4nccn4c3)cc2)cc1C		6	28.1	
O=C(NCc1ccc(S(=O)(=O)c2ccc(F)c(C(F)(F)F)c2)cc1)c1cc2cnccc2[nH]1	16.4	4.3		
CN(C)CCc1cccc(S(=O)(=O)c2ccc(CNC(=O)c3cc4cnccc4[nH]3)cc2)c1	29.2	22.3		
O=C(NCc1ccc(S(=O)(=O)c2ccc3c(c2)OCCO3)cc1)c1cnc2nccn2c1 [N-{[4-(2,3-dihydro-1,4-benzodioxine-6-sulfonyl)phenyl]methyl}imidazo[1,2-a]pyrimidine-6-carboxamide]	0.2	0.5		
O=C(NCc1ccc(S(=O)(=O)c2cccc(F)c2)cc1)c1cc2ccncc2o1 [N-({4-[(3-fluorobenzene)sulfonyl]phenyl}methyl)furo[2,3-c]pyridine-2-carboxamide]		14.5	5.8	
O=C(NCc1ccc(S(=O)(=O)c2cnc3ccc(Cl)cn23)cc1)c1cc2ccncc2s1 [N-[(4-{6-chloroimidazo[1,2-a]pyridine-3-sulfonyl}phenyl)methyl]thieno[2,3-c]pyridine-2-carboxamide]	1.2	0.4		
COc1cc(C(F)(F)F)ccc1S(=O)(=O)c1ccc(CNC(=O)c2cc3cnccc3[nH]2)cc1 [N-[(4-{[2-methoxy-4-(trifluoromethyl)benzene]sulfonyl}phenyl)methyl]-1H-pyrrolo[3,2-c]pyridine-2-carboxamide]			22	5
COc1ccc(S(=O)(=O)c2ccc(CNC(=O)c3cc4ccncc4o3)cc2)c(OC)n1 [N-{[4-(2,6-dimethoxypyridine-3-sulfonyl)phenyl]methyl}furo[2,3-c]pyridine-2-carboxamide]	6.6	11		
CCCCOc1ccc(S(=O)(=O)c2ccc(CNC(=O)c3ccc4nccn4c3)cc2)cc1Cl		7.6	4.1	
CCOc1cccc(S(=O)(=O)c2ccc(CNC(=O)c3cc4ccncc4o3)cc2)c1 [N-({4-[(3-ethoxybenzene)sulfonyl]phenyl}methyl)furo[2,3-c]pyridine-2-carboxamide]		11	6.8	
